{
  "source": "patent US20240391912A1",
  "about": "“MORPHIC FORMS OF CFT7455 AND METHODS OF MANUFACTURE THEREOF” (C4 THERAPEUTICS, INC., priority 2022, published 2024)",
  "key": {"[1]": {"assay": "Approximate solubility of Compound 5 polymorphs in EtOH:DCM (v:v=1:4)", "type": "physicochemical", "conditions": "25° C.; for Approximate solubility (visual appearance): EtOH:DCM (v:v = 1:4), listed as Form VI", "procedure": "Four polymorphs (Form V, Form VI, Form VII and Form VIII) were weighed respectively and a suitable amount of solvent mixture EtOH:DCM (v:v=1:4) was added. The obtained samples were stirred at a rate of 400 rpm at 25° C."}, "[2]": {"assay": "Characterization of polymorphs and pseudo-polymorphs of Compound 5", "type": "physicochemical"}, "[3]": {"assay": "Bulk stability of Compound 5 Form VI and Form VIII at 25° C./60% RH, open container, 1 week (XRPD, HPLC, color)", "type": "physicochemical", "procedure": "Compound 5 Form VI and Form VIII were placed at 25° C./60% RH in an open container over 1 week. Samples after the stress were characterized by XRPD and HPLC and inspected for color change."}, "[4]": {"assay": "Solubility of Compound 5 Form VI and Form VIII at 25° C., equilibration for 24 hours (HPLC; XRPD of residual solids)", "type": "physicochemical", "procedure": "11 mg (for 20 mg/mL target concentration) or 22 mg (for 50-60 mg/mL target concentration) of Compound 5 Form VI and Form VIII (equivalent to 10 mg or 20 mg of anhydrate free base) was weighed into a 4 mL glass vial, respectively. Up to 0.5 mL of potential eluent medium was added. The obtained suspensions/solutions were stirred at 25° C. at 400 rpm for 24 hours and then centrifuged at 25° C. at 14,000 rpm for 5 minutes. The residual solids were characterized by XRPD to determine the physical form. The supernatants (0.1 mL) were evaporated at about 22-25° C./30-60% RH."}, "[5]": {"tested_on": "relapsed/refractory (r/r) MCL", "conditions": "r/r subjects with MCL following bortezomib; cited from earlier work"}, "[6]": {"conditions": "THF/Heptane (v:v = 1:2), 25° C., 24 hours, target conc. 20 mg/mL"}, "[7]": {"conditions": "THF/water (v:v = 1:2.5), 25° C., 24 hours, target conc. 20 mg/mL, listed as Form VI"}},
  "data": [
    {"smiles": "O=C1CCC(N2C(=O)c3cccc4c(Cc5ccc(CN6CCOCC6)cc5)ccc2c34)C(=O)N1", "note": "(racemic) [Compound 5 Form VI]", "values": [
      {"measurement": "Approximate solubility (visual appearance)", "setting": "[1]; concentration 10 mg/mL", "result": "Suspension"},
      {"measurement": "Approximate solubility (visual appearance)", "setting": "[1]; concentration 20 mg/mL", "result": "Suspension"},
      {"measurement": "approximate solubility compared with Form V and Form VII", "setting": "[1]; EtOH:DCM (v:v=1:4), visual observation", "result": "higher solubility"},
      {"measurement": "Evaporation of solvent from (by DSC)", "setting": "[2]; DSC", "result": "about 154° C.;"},
      {"measurement": "Dehydration (by DSC)", "setting": "[2]; DSC, listed as Form VI", "result": "about 6° C.;"},
      {"measurement": "Enthalpy (by DSC)", "setting": "[2]; DSC, listed as Form VI", "result": 35, "unit": "J/g"},
      {"measurement": "Melting onset Tonset (by DSC)", "setting": "[2]; DSC, listed as Form VI", "result": "Tonset 226.4° C.,"},
      {"measurement": "Weight loss (by TGA)", "setting": "[2]; at 215° C.", "result": 9.7, "unit": "% at 215 °C"},
      {"measurement": "Residual ion (by IC): Br−", "setting": "[2]; listed as Form VI", "result": "Br^−: 0.22 equiv."},
      {"measurement": "Residual ion (by IC): Cl−", "setting": "[2]; listed as Form VI", "result": "Cl^−: 0.08 equiv.;"},
      {"measurement": "Residual ion (by IC): Li+", "setting": "[2]; listed as Form VI", "result": "Li^+: 0.17 equiv.;"},
      {"measurement": "Residual ion (by IC): Na+", "setting": "[2]; listed as Form VI", "result": "Na+: 0.02 equiv."},
      {"measurement": "bulk stability, chemical", "setting": "[3]", "result": "chemically stable"},
      {"measurement": "bulk stability, physical (form)", "setting": "[3]; listed as Form VI", "result": "good physical stability"},
      {"measurement": "Bulk (HPLC) Purity", "setting": "[3]; solid state, initial purity 93.1% (Form VI), 95.6% (Form VIII), listed as Form VI", "result": 93.1, "unit": "%"},
      {"measurement": "Bulk (XRPD)", "setting": "[3]; solid state, listed as Form VI", "result": "Form VI"},
      {"measurement": "solubility", "setting": "[4]; EtOH/DCM (v:v = 1:4), 25° C., 24 hours, target conc. 50-60 mg/mL, LOQ 0.8 μg/mL, listed as Form VI", "result": 27, "unit": "mg/mL"},
      {"measurement": "solubility", "setting": "[4]; MeOH/DCM (v:v = 1:2), 25° C., 24 hours, target conc. 50-60 mg/mL, LOQ 0.8 μg/mL", "result": 30, "unit": "mg/mL"},
      {"measurement": "physical form after solubility test", "setting": "[4]; MeOH:DCM (v:v=1:2) and EtOH:DCM (v:v=1:4), 25° C., 24 h", "result": "converted to almost the amorphous form"},
      {"measurement": "XRPD of residual solids", "setting": "[4]; [6]", "result": "Form VI"},
      {"measurement": "solubility", "setting": "[4]; [6]", "result": 0.1, "unit": "mg/mL"},
      {"measurement": "XRPD of residual solids", "setting": "[4]; THF/IPA (v:v = 1:2), 25° C., 24 hours, target conc. 20 mg/mL", "result": "Form VI"},
      {"measurement": "solubility", "setting": "[4]; THF/IPA (v:v = 1:2), 25° C., 24 hours, target conc. 20 mg/mL, listed as Form VI", "result": 0.9, "unit": "mg/mL"},
      {"measurement": "XRPD of residual solids", "setting": "[4]; [7]", "result": "Form VI"},
      {"measurement": "solubility", "setting": "[4]; [7]", "result": 4, "unit": "mg/mL"},
      {"measurement": "physical form after solubility test", "setting": "[4]; THF:2-propanol (v:v=1:2), THF:Heptane (v:v=1:2) and THF:water (v:v=1:2.5), 25° C., 24 h", "result": "no form change"},
      {"measurement": "solubility", "setting": "[4]; in EtOH/DCM (v:v=1:4), about 25° C., 24 h, listed as Form VI", "result": "~27", "unit": "mg/mL"},
      {"measurement": "solubility", "setting": "[4]; in MeOH/DCM (v:v=1:2), about 25° C., 24 h", "result": "about 30 mg/mL"},
      {"measurement": "solubility", "setting": "[4]; in MeOH:DCM (v:v=1:2) and EtOH:DCM (v:v=1:4), 25° C. for 24 h, listed as Form VI", "result": "~30", "unit": "mg/mL"},
      {"measurement": "solubility", "setting": "[4]; in THF:IPA (v:v=1:2), THF:Heptane (v:v=1:2) and THF:Heptane (v:v=1:2.5), 25° C. for 24 h", "result": "~1", "unit": "mg/mL"}
    ]},
    {"smiles": "Nc1cccc2c1CN(C1CCC(=O)NC1=O)C2=O", "note": "(centres unmarked) [lenalidomide]", "values": [
      {"measurement": "median duration of response [DOR]", "setting": "[5]", "result": 16.6, "unit": "months"},
      {"measurement": "overall response rate [ORR]", "setting": "[5]", "result": 28, "unit": "%"}
    ]}
  ]
}
